{"source": "the OligoGym collection", "note": "Values joined by “and” are separate entries in the source; they are usually repeats but may differ in a detail not shown here. Identical values can stand only once. HELM strings list units from the 5' end as sugar, base in round brackets, then linkage (d deoxyribose, r ribose, m 2'-O-methyl, p phosphodiester). Strings are as the collection lists them, not checked against the first reports. ss, as = sense and antisense strand; [lna] = locked nucleic acid (LNA); [hna] = hexitol nucleic acid; [s4r] = 4'-thioribose; [fl2r] = 2'-fluoro; note: test system not given here", "data": [{"settings": "siRNA", "values": [{"substance": "RNA1{r(G)p.r(A)p.r(C)p.r(G)p.r(U)p.r(A)p.r(A)p.r(A)p.r(C)p.r(G)p.r(G)p.r(C)p.r(C)p.r(A)p.r(C)p.r(A)p.r(A)p.r(G)p.[hna](U)p.[hna](U)p.r(C)}|RNA2{r(A)p.m(C)p.r(U)p.r(U)p.r(G)p.r(U)p.r(G)p.r(G)p.r(C)p.r(C)p.r(G)p.r(U)p.r(U)p.r(U)p.r(A)p.r(C)p.r(G)p.r(U)p.r(C)p.r(G)p.r(C)}$$$RNA1{StrandType:ss}|RNA2{StrandType:as}$", "target mRNA knockdown": "57%"}, {"substance": "RNA1{r(C)p.r(U)p.r(U)p.r(A)p.r(C)p.r(G)p.r(C)p.r(U)p.r(G)p.r(A)p.r(G)p.r(U)p.r(A)p.r(C)p.r(U)p.r(U)p.r(C)p.r(G)p.r(A)p.r(T)p.r(T)}|RNA2{r(U)p.r(C)p.r(G)p.r(A)p.r(A)p.r(G)p.r(U)p.r(A)p.r(C)p.r(U)p.r(C)p.[lna](A)p.r(G)p.r(C)p.r(G)p.r(U)p.r(A)p.r(A)p.r(G)p.r(T)p.r(T)}$$$RNA1{StrandType:ss}|RNA2{StrandType:as}$", "target mRNA knockdown": "89%"}, {"substance": "RNA1{r(C)p.r(G)p.r(C)p.r(C)p.r(C)p.r(C)p.r(C)p.r(C)p.r(U)p.r(C)p.r(A)p.r(A)p.r(G)p.r(C)p.m(U)p.r(A)p.r(C)p.r(C)p.r(G)p.r(T)p.r(T)}|RNA2{r(C)p.r(G)p.r(G)p.m(U)p.r(A)p.r(G)p.r(C)p.r(U)p.r(U)p.r(G)p.r(A)p.r(G)p.r(G)p.r(G)p.r(G)p.r(G)p.r(G)p.r(C)p.r(G)p.r(T)p.r(T)}$$$RNA1{StrandType:ss}|RNA2{StrandType:as}$", "target mRNA knockdown": "76%"}, {"substance": "RNA1{[s4r](C)p.[s4r](G)p.[s4r](U)p.[s4r](A)p.[s4r](C)p.[s4r](G)p.r(C)p.r(G)p.r(G)p.r(A)p.r(A)p.r(U)p.r(A)p.r(C)p.r(U)p.r(U)p.r(C)p.r(G)p.r(A)p.r(T)p.r(T)}|RNA2{r(U)p.r(C)p.r(G)p.r(A)p.r(A)p.r(G)p.r(U)p.r(A)p.r(U)p.r(U)p.r(C)p.r(C)p.r(G)p.[s4r](C)p.[s4r](G)p.[s4r](U)p.[s4r](A)p.[s4r](C)p.[s4r](G)p.r(T)p.r(T)}$$$RNA1{StrandType:ss}|RNA2{StrandType:as}$", "target mRNA knockdown": "47.8%"}, {"substance": "RNA1{r(G)p.r(A)p.r(G)p.[fl2r](U)p.r(A)p.r(U)p.r(U)p.r(U)p.r(C)p.r(C)p.r(G)p.r(C)p.r(U)p.r(G)p.r(G)p.r(A)p.r(A)p.r(C)p.r(U)p.r(T)p.r(T)}|RNA2{r(A)p.r(G)p.r(U)p.r(U)p.r(C)p.r(C)p.r(A)p.r(G)p.r(C)p.r(G)p.r(G)p.r(A)p.r(A)p.r(A)p.[fl2r](U)p.r(A)p.r(C)p.r(U)p.r(C)p.r(T)p.r(T)}$$$RNA1{StrandType:ss}|RNA2{StrandType:as}$", "target mRNA knockdown": "75%"}, {"substance": "RNA1{r(C)p.[fl2r](U)p.r(G)p.r(A)p.r(C)p.r(C)p.r(G)p.r(G)p.r(A)p.r(A)p.[fl2r](G)p.r(C)p.r(G)p.r(C)p.r(U)p.[fl2r](U)p.r(A)p.r(A)p.r(A)p.r(T)p.r(T)}|RNA2{r(U)p.r(U)p.[fl2r](U)p.r(A)p.r(A)p.r(G)p.r(C)p.r(G)p.r(C)p.r(U)p.r(U)p.r(C)p.r(C)p.r(G)p.r(G)p.r(U)p.[fl2r](C)p.r(A)p.r(G)p.r(T)p.r(T)}$$$RNA1{StrandType:ss}|RNA2{StrandType:as}$", "target mRNA knockdown": "85%"}, {"substance": "RNA1{r(A)p.r(U)p.r(C)p.r(U)p.r(G)p.r(A)p.r(A)p.r(G)p.r(A)p.r(A)p.r(G)p.r(G)p.r(A)p.r(G)p.r(A)p.r(A)p.r(A)p.r(A)p.r(A)p.[lna](T)p.[lna](T)}|RNA2{[lna](T)p.r(U)p.r(U)p.r(U)p.r(U)p.r(C)p.r(U)p.r(C)p.r(C)p.r(U)p.r(U)p.r(C)p.r(U)p.r(U)p.r(C)p.r(A)p.r(G)p.r(A)p.r(U)p.[lna](T)p.[lna](T)}$$$RNA1{StrandType:ss}|RNA2{StrandType:as}$", "target mRNA knockdown": "52% and 63%"}, {"substance": "RNA1{r(A)p.r(A)p.r(A)p.r(C)p.r(A)p.r(U)p.r(G)p.r(C)p.r(A)p.r(G)p.r(A)p.r(A)p.r(A)p.r(A)p.r(U)p.r(G)p.r(C)p.r(U)p.r(G)p.r(T)p.r(T)}|RNA2{r(C)p.r(A)p.r(G)p.r(C)p.r(A)p.r(U)p.r(U)p.r(U)p.r(U)p.r(C)p.r(U)p.r(G)p.r(C)p.r(A)p.r(U)p.r(G)p.r(U)p.[s4r](U)p.[s4r](U)p.r(T)p.r(T)}$$$RNA1{StrandType:ss}|RNA2{StrandType:as}$", "target mRNA knockdown": "57.2%"}, {"substance": "RNA1{r(A)p.r(C)p.r(G)p.r(U)p.m(C)p.r(A)p.r(C)p.r(C)p.r(G)p.r(A)p.r(G)p.r(G)p.r(A)p.r(G)p.r(A)p.r(A)p.r(G)p.r(U)p.r(A)p.r(T)p.r(T)}|RNA2{m(U)p.r(A)p.r(C)p.r(U)p.r(U)p.r(C)p.r(U)p.r(C)p.r(C)p.r(U)p.r(C)p.r(G)p.r(G)p.m(U)p.r(G)p.r(A)p.r(C)p.r(G)p.r(U)p.r(T)p.r(T)}$$$RNA1{StrandType:ss}|RNA2{StrandType:as}$", "target mRNA knockdown": "80%"}, {"substance": "RNA1{r(G)p.r(G)p.r(C)p.m(C)p.r(A)p.r(A)p.r(A)p.r(G)p.m(U)p.r(A)p.r(A)p.r(U)p.r(C)p.r(G)p.m(U)p.r(G)p.r(G)p.r(U)p.r(U)p.r(T)p.r(T)}|RNA2{r(A)p.r(A)p.r(C)p.m(C)p.r(A)p.r(C)p.r(G)p.r(A)p.r(U)p.m(U)p.r(A)p.r(C)p.r(U)p.r(U)p.m(U)p.r(G)p.r(G)p.r(C)p.r(C)p.r(T)p.r(T)}$$$RNA1{StrandType:ss}|RNA2{StrandType:as}$", "target mRNA knockdown": "86%"}, {"substance": "RNA1{m(G)p.r(C)p.m(G)p.m(A)p.m(G)p.r(C)p.m(A)p.m(G)p.m(A)p.m(G)p.m(A)p.m(A)p.r(U)p.r(C)p.r(U)p.m(A)p.r(C)p.r(C)p.r(U)p.r(T)p.r(T)}|RNA2{r(A)p.r(G)p.r(G)p.r(U)p.r(A)p.r(G)p.r(A)p.r(U)p.r(U)p.r(C)p.r(U)p.r(C)p.r(U)p.r(G)p.r(C)p.r(U)p.r(C)p.r(G)p.r(C)p.r(T)p.r(T)}$$$RNA1{StrandType:ss}|RNA2{StrandType:as}$", "target mRNA knockdown": "65%"}, {"substance": "RNA1{r(C)p.[fl2r](U)p.r(A)p.r(G)p.r(A)p.r(G)p.r(G)p.[fl2r](A)p.r(U)p.r(C)p.r(U)p.[fl2r](U)p.r(G)p.r(A)p.r(A)p.r(G)p.r(A)p.r(C)p.r(C)p.r(T)p.r(T)}|RNA2{r(G)p.r(G)p.r(U)p.r(C)p.r(U)p.r(U)p.r(C)p.r(A)p.r(A)p.r(G)p.r(A)p.r(U)p.r(C)p.r(C)p.r(U)p.r(C)p.[fl2r](U)p.r(A)p.r(G)p.r(T)p.r(T)}$$$RNA1{StrandType:ss}|RNA2{StrandType:as}$", "target mRNA knockdown": "78%"}, {"substance": "RNA1{[fl2r](C)p.r(U)p.[fl2r](A)p.r(G)p.[fl2r](A)p.r(G)p.[fl2r](G)p.r(A)p.[fl2r](U)p.r(C)p.[fl2r](U)p.r(U)p.[fl2r](G)p.r(A)p.[fl2r](A)p.r(G)p.[fl2r](A)p.r(C)p.r(C)p.r(T)p.r(T)}|RNA2{r(G)p.r(G)p.r(U)p.r(C)p.r(U)p.r(U)p.r(C)p.r(A)p.r(A)p.r(G)p.r(A)p.r(U)p.r(C)p.r(C)p.r(U)p.r(C)p.r(U)p.r(A)p.r(G)p.r(T)p.r(T)}$$$RNA1{StrandType:ss}|RNA2{StrandType:as}$", "target mRNA knockdown": "61%"}, {"substance": "RNA1{[fl2r](U)p.r(U)p.[fl2r](A)p.r(C)p.[fl2r](C)p.r(C)p.[fl2r](C)p.r(G)p.[fl2r](A)p.r(U)p.[fl2r](U)p.r(C)p.[fl2r](A)p.r(G)p.[fl2r](C)p.r(C)p.[fl2r](U)p.r(C)p.[fl2r](U)p.r(T)p.r(T)}|RNA2{r(A)p.r(G)p.r(A)p.r(G)p.r(G)p.r(C)p.r(U)p.r(G)p.r(A)p.r(A)p.r(U)p.r(C)p.r(G)p.r(G)p.r(G)p.r(G)p.r(U)p.r(A)p.r(A)p.r(T)p.r(T)}$$$RNA1{StrandType:ss}|RNA2{StrandType:as}$", "target mRNA knockdown": "67%"}, {"substance": "RNA1{r(C)p.r(U)p.m(C)p.r(A)p.r(A)p.r(A)p.r(U)p.m(C)p.r(A)p.r(A)p.r(G)p.r(G)p.r(C)p.r(C)p.r(G)p.r(G)p.r(A)p.r(G)p.r(U)p.r(T)p.r(T)}|RNA2{r(A)p.r(C)p.r(U)p.r(C)p.r(C)p.r(G)p.r(G)p.r(C)p.r(C)p.r(U)p.m(U)p.r(G)p.r(A)p.r(U)p.r(U)p.m(U)p.r(G)p.r(A)p.r(G)p.r(T)p.r(T)}$$$RNA1{StrandType:ss}|RNA2{StrandType:as}$", "target mRNA knockdown": "82%"}, {"substance": "RNA1{r(A)p.r(C)p.r(G)p.r(G)p.r(C)p.r(U)p.r(C)p.r(G)p.r(C)p.[fl2r](U)p.r(A)p.r(C)p.r(C)p.r(C)p.r(U)p.r(C)p.r(G)p.r(A)p.r(C)p.r(T)p.r(T)}|RNA2{r(G)p.r(U)p.r(C)p.r(G)p.r(A)p.r(G)p.r(G)p.r(G)p.[fl2r](U)p.r(A)p.r(G)p.r(C)p.r(G)p.r(A)p.r(G)p.r(C)p.r(C)p.r(G)p.r(U)p.r(T)p.r(T)}$$$RNA1{StrandType:ss}|RNA2{StrandType:as}$", "target mRNA knockdown": "78%"}, {"substance": "RNA1{r(A)p.r(G)p.r(A)p.r(C)p.[fl2r](U)p.r(A)p.r(A)p.r(G)p.r(C)p.r(C)p.r(C)p.r(A)p.r(A)p.r(A)p.r(A)p.r(G)p.r(G)p.r(G)p.r(C)p.r(T)p.r(T)}|RNA2{r(G)p.r(C)p.r(C)p.r(C)p.r(U)p.r(U)p.r(U)p.r(U)p.r(G)p.r(G)p.r(G)p.r(C)p.r(U)p.[fl2r](U)p.r(A)p.r(G)p.r(U)p.r(C)p.r(U)p.r(T)p.r(T)}$$$RNA1{StrandType:ss}|RNA2{StrandType:as}$", "target mRNA knockdown": "47%"}, {"substance": "RNA1{[s4r](A)p.[s4r](A)p.[s4r](A)p.[s4r](C)p.r(A)p.r(U)p.r(G)p.r(C)p.r(A)p.r(G)p.r(A)p.r(A)p.r(A)p.r(A)p.r(U)p.[s4r](G)p.[s4r](C)p.[s4r](C)p.[s4r](U)p.r(T)p.r(T)}|RNA2{r(C)p.r(A)p.r(G)p.r(C)p.r(A)p.r(U)p.r(U)p.r(U)p.r(U)p.r(C)p.r(U)p.r(G)p.r(C)p.r(A)p.r(U)p.r(G)p.r(U)p.[s4r](U)p.[s4r](U)p.r(T)p.r(T)}$$$RNA1{StrandType:ss}|RNA2{StrandType:as}$", "target mRNA knockdown": "87.7%"}, {"substance": "RNA1{r(C)p.r(G)p.r(G)p.r(A)p.r(U)p.r(C)p.m(U)p.r(A)p.m(C)p.r(A)p.r(C)p.r(C)p.r(U)p.r(U)p.m(C)p.r(A)p.r(A)p.r(G)p.r(A)p.r(T)p.r(T)}|RNA2{r(U)p.r(C)p.r(U)p.m(U)p.r(G)p.r(A)p.r(A)p.r(G)p.r(G)p.m(U)p.r(G)p.m(U)p.r(A)p.r(G)p.r(A)p.r(U)p.r(C)p.r(C)p.r(G)p.r(T)p.r(T)}$$$RNA1{StrandType:ss}|RNA2{StrandType:as}$", "target mRNA knockdown": "68%"}, {"substance": "RNA1{m(U)p.r(A)p.r(A)p.r(A)p.r(C)p.r(U)p.r(U)p.m(U)p.r(G)p.r(G)p.r(G)p.r(G)p.r(A)p.r(A)p.r(G)p.r(G)p.r(G)p.r(A)p.r(G)p.r(T)p.r(T)}|RNA2{r(C)p.r(U)p.r(C)p.r(C)p.r(C)p.r(U)p.r(U)p.r(C)p.r(C)p.r(C)p.m(C)p.r(A)p.r(A)p.r(A)p.r(G)p.r(U)p.r(U)p.m(U)p.r(A)p.r(T)p.r(T)}$$$RNA1{StrandType:ss}|RNA2{StrandType:as}$", "target mRNA knockdown": "67%"}]}]}
